Results reported in ChEMBL document CHEMBL1629455, “Discovery of a novel class of biphenyl pyrazole sodium channel blockers for treatment of neuropathic pain” (Bioorg Med Chem Lett, 2010).

Assays:
hERG (KCNH2) [1] = biological target: T1, hERG (KCNH2) (Homo sapiens, UniProt Q12809); experiment: Inhibition of MK-0499 binding to human ERG at 10 uM; conditions: probe MK-0499
[2] = biological target: Cav1.2 (L-type calcium channel subunit alpha-1C) (Homo sapiens, UniProt Q13936); experiment: Inhibition of DLZ binding to Cav1.2 at 10 uM; conditions: probe DLZ
[3] = Metabolic stability in dog liver microsomes assessed as compound remaining after 60 mins in presence of 10 uM substrate; type: ADME, Canis lupus familiaris, Microsome; conditions: read-out: Stability
Canis familiaris [4] = experiment: Cardiotoxicity in anesthetized dog assessed as effect on QRS interval at 10 mg/kg, iv; type: toxicity, organism-based, Canis lupus familiaris; parameters: dose 10 mg/kg, route intravenous; conditions: in vivo
[5] = Cmax in dog at 20 mg/kg, po; type: ADME, organism-based, Canis lupus familiaris; parameters: dose 20 mg/kg, route oral; conditions: in vivo
[6] = AUC in rat at 3 mg/kg, po; type: ADME, organism-based; parameters: dose 3 mg/kg, route oral; conditions: plasma
Canis familiaris [7] = experiment: Cardiotoxicity in anesthetized dog assessed as effect on QTc interval at 10 mg/kg, iv; type: toxicity, organism-based, Canis lupus familiaris; parameters: dose 10 mg/kg, route intravenous; conditions: in vivo
[8] = Metabolic stability in rat liver microsomes assessed as compound remaining after 60 mins in presence of 10 uM substrate; type: ADME, Microsome; conditions: read-out: Stability
[9] = Half life in dog at 0.5 mg/kg, iv and 2 mg/kg, po; type: ADME, organism-based, Canis lupus familiaris; conditions: in vivo
Rattus norvegicus [10] = experiment: Antiallodynic activity in rat […] model assessed as reversal of complete Freund's adjuvant-induced allodynia at 30 mg/kg, po after 4 hrs; type: functional
Rattus norvegicus [11] = experiment: Neurotoxicity in rat assessed as effect on motor coordination at 30 mg/kg, po by rotarod test (reference value: 18%); type: toxicity, organism-based; parameters: dose 30 mg/kg, route oral; conditions: in vivo
Mus musculus [12] = experiment: Neurotoxicity in conscious mouse assessed as effect on motor activity at 100 mg/kg after 2 hrs; type: toxicity, organism-based; parameters: dose 100 mg/kg; conditions: in vivo
Mus musculus [13] = experiment: Neurotoxicity in conscious mouse assessed as effect on behavior at 100 mg/kg after 2 hrs; type: toxicity, organism-based; parameters: dose 100 mg/kg; conditions: in vivo
Plasma [14] = experiment: Plasma concentration in dog at 1 mg/kg, iv; type: ADME, organism-based, Canis lupus familiaris; parameters: dose 1 mg/kg, route intravenous; conditions: in vivo
Rattus norvegicus [15] = experiment: Antiallodynic activity in rat […] model assessed as reversal of complete Freund's adjuvant-induced allodynia at 30 mg/kg, po after 2 hrs; type: functional
[16] = Half life in rat at 1 mg/kg, iv and 3 mg/kg, po; type: ADME, organism-based; conditions: in vivo
[17] = Bioavailability in dog at 0.5 mg/kg, iv and 2 mg/kg, po; type: ADME, organism-based, Canis lupus familiaris; conditions: in vivo
Canis familiaris [18] = experiment: Cardiotoxicity in anesthetized dog assessed as effect on heart rate at 1 mg/kg, iv; type: toxicity, organism-based, Canis lupus familiaris; parameters: dose 1 mg/kg, route intravenous; conditions: in vivo
[19] = biological target: Sodium channel protein type 5 subunit alpha (Homo sapiens, UniProt Q14524); experiment: Inhibition of Nav1.5 by VIPR assay
Rattus norvegicus [20] = experiment: Antiallodynic activity in rat spinal nerve ligation model of neuropathic pain assessed as reversal of allodynia at 10 mg/kg, po after 4 hrs; type: functional; conditions: Rattus norvegicus, Spinal nerve, 4 h
Mus musculus [21] = experiment: Neurotoxicity in conscious mouse assessed as effect on body temperature at 100 mg/kg after 24 hrs; type: toxicity, organism-based; parameters: dose 100 mg/kg; conditions: in vivo
hERG (KCNH2) [22] = biological target: T1, hERG (KCNH2); experiment: Inhibition of human ERG at 30 uM by electrophysiology assay
Canis familiaris [23] = experiment: Clearance in dog plasma at 0.5 mg/kg, iv and 2 mg/kg, po; type: ADME, organism-based, Canis lupus familiaris; conditions: in vivo
Mus musculus [24] = experiment: Neurotoxicity in conscious mouse assessed as effect on behavior at 100 mg/kg after 5 hrs; type: toxicity, organism-based; parameters: dose 100 mg/kg; conditions: in vivo
Rattus norvegicus [25] = experiment: Antiallodynic activity in rat spinal nerve ligation model of neuropathic pain assessed as reversal of allodynia at 3 mg/kg, po after 4 hrs; type: functional
Mus musculus [26] = experiment: Neurotoxicity in conscious mouse assessed as effect on motor activity at 100 mg/kg after 24 hrs; type: toxicity, organism-based; parameters: dose 100 mg/kg; conditions: in vivo
Canis familiaris [27] = experiment: Cardiotoxicity in anesthetized dog assessed as effect on mean arterial pressure at 1 mg/kg, iv; type: toxicity, organism-based, Canis lupus familiaris, Artery; parameters: dose 1 mg/kg, route intravenous; conditions: in vivo
Rattus norvegicus [28] = experiment: Antiallodynic activity in rat spinal nerve ligation model of neuropathic pain assessed as reversal of allodynia at 30 mg/kg, po after 2 hrs; type: functional
Plasma [29] = experiment: Plasma concentration in dog at 10 mg/kg, iv; type: ADME, organism-based, Canis lupus familiaris; parameters: dose 10 mg/kg, route intravenous; conditions: in vivo
[30] = Plasma concentration in rat 30 to 100 mg/kg, po after 3.5 hrs; type: ADME, organism-based; parameters: dose 30-100 mg/kg, route oral
Mus musculus [31] = experiment: Neurotoxicity in conscious mouse assessed as effect on body temperature at 100 mg/kg after 2 hrs; type: toxicity, organism-based; parameters: dose 100 mg/kg; conditions: in vivo
[32] = AUC in dog at 2 mg/kg, po; type: ADME, organism-based, Canis lupus familiaris; parameters: dose 2 mg/kg, route oral; conditions: plasma
[33] = biological target: Sodium channel protein type 10 subunit alpha (Homo sapiens, UniProt Q9Y5Y9); experiment: Inhibition of human Nav1.8 by VIPR assay
Canis familiaris [34] = experiment: Cardiotoxicity in anesthetized dog assessed as effect on mean arterial pressure at 3 mg/kg, iv; type: toxicity, organism-based, Canis lupus familiaris, Artery; parameters: dose 3 mg/kg, route intravenous; conditions: in vivo
Mus musculus [35] = experiment: Neurotoxicity in conscious mouse assessed as effect on CNS function at 100 mg/kg after 2 hrs; type: toxicity, organism-based, Central nervous system; parameters: dose 100 mg/kg; conditions: in vivo
Canis familiaris [36] = experiment: Cardiotoxicity in anesthetized dog assessed as effect on mean arterial pressure at 10 mg/kg, iv; type: toxicity, organism-based, Canis lupus familiaris, Artery; parameters: dose 10 mg/kg, route intravenous; conditions: in vivo
Plasma [37] = experiment: Plasma concentration in dog at 3 mg/kg, iv; type: ADME, organism-based, Canis lupus familiaris; parameters: dose 3 mg/kg, route intravenous; conditions: in vivo
Canis familiaris [38] = experiment: Cardiotoxicity in anesthetized dog assessed as effect on QRS interval at 3 mg/kg, iv; type: toxicity, organism-based, Canis lupus familiaris; parameters: dose 3 mg/kg, route intravenous; conditions: in vivo
Mus musculus [39] = experiment: Neurotoxicity in conscious mouse assessed as effect on behavior at 100 mg/kg after 24 hrs; type: toxicity, organism-based; parameters: dose 100 mg/kg; conditions: in vivo
[40] = Bioavailability in rat at 1 mg/kg, iv and 3 mg/kg, po; type: ADME, organism-based; conditions: in vivo
Cytochrome P450 2C9 = Cytochrome P450 2C9 (Homo sapiens, UniProt P11712); experiment: Inhibition of CYP2C9; type: ADME
Cytochrome P450 2D6 = Cytochrome P450 2D6 (Homo sapiens, UniProt P10635); experiment: Inhibition of CYP2D6; type: ADME
Canis familiaris [41] = experiment: Cardiotoxicity in anesthetized dog assessed as effect on QRS interval at 1 mg/kg, iv; type: toxicity, organism-based, Canis lupus familiaris; parameters: dose 1 mg/kg, route intravenous; conditions: in vivo
[42] = Cmax in rat at 1 mg/kg, iv and 3 mg/kg, po; type: ADME, organism-based; conditions: in vivo
Rattus norvegicus [43] = experiment: Neurotoxicity in rat assessed as delay in motor coordination at 100 mg/kg, po by rotarod test (reference value: 18%); type: toxicity, organism-based; parameters: dose 100 mg/kg, route oral; conditions: in vivo
Rattus norvegicus [44] = experiment: Antiallodynic activity in rat spinal nerve ligation model of neuropathic pain assessed as reversal of allodynia at 3 mg/kg, po after 2 hrs; type: functional
Rattus norvegicus [45] = experiment: Antiallodynic activity in rat spinal nerve ligation model of neuropathic pain assessed as reversal of allodynia at 10 mg/kg, po after 2 hrs; type: functional; conditions: Rattus norvegicus, Spinal nerve, 2 h
Canis familiaris [46] = experiment: Cardiotoxicity in anesthetized dog assessed as increase in PR interval at 10 mg/kg, iv; type: toxicity, organism-based, Canis lupus familiaris; parameters: dose 10 mg/kg, route intravenous; conditions: in vivo
[47] = biological target: Sodium channel protein type 9 subunit alpha (Homo sapiens, UniProt Q15858); experiment: Inhibition of human Nav1.7 by VIPR assay
Rattus norvegicus [48] = experiment: Antiallodynic activity in rat spinal nerve ligation model of neuropathic pain assessed as reversal of allodynia at 30 mg/kg, po after 4 hrs; type: functional

T1 sequence (Q12809 whole entry): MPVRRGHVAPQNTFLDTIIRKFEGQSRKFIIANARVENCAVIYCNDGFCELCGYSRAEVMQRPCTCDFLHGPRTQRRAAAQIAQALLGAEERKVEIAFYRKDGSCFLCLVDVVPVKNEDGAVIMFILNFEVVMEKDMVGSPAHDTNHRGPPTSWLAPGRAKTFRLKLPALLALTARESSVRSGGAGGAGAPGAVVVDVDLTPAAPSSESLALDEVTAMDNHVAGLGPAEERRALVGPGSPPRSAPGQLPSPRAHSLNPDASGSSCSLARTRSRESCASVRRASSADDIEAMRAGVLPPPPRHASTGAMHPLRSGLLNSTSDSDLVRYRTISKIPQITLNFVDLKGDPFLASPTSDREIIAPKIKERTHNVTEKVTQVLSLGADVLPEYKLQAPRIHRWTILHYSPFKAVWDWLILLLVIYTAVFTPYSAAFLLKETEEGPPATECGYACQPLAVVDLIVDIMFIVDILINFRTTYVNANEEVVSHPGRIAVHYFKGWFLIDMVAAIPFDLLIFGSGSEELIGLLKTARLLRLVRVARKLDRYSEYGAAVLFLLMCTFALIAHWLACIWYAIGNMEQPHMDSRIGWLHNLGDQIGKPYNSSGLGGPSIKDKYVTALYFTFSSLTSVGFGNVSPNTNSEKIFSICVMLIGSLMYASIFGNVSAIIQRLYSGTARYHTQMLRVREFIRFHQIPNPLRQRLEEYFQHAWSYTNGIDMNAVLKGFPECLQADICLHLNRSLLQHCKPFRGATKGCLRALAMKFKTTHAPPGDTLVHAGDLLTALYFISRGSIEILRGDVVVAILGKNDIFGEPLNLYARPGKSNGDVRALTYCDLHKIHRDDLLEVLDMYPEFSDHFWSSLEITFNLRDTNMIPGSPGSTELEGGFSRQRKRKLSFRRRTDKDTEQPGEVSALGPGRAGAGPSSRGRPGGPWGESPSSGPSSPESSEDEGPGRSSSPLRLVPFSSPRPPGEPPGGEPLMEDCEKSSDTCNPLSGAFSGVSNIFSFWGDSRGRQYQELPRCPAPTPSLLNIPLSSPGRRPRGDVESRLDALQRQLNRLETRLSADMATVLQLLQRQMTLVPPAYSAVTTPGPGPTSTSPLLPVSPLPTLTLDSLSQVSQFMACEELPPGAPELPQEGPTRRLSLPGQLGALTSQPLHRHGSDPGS
Sequence of Sodium channel protein type 9 subunit alpha (Q15858 whole entry): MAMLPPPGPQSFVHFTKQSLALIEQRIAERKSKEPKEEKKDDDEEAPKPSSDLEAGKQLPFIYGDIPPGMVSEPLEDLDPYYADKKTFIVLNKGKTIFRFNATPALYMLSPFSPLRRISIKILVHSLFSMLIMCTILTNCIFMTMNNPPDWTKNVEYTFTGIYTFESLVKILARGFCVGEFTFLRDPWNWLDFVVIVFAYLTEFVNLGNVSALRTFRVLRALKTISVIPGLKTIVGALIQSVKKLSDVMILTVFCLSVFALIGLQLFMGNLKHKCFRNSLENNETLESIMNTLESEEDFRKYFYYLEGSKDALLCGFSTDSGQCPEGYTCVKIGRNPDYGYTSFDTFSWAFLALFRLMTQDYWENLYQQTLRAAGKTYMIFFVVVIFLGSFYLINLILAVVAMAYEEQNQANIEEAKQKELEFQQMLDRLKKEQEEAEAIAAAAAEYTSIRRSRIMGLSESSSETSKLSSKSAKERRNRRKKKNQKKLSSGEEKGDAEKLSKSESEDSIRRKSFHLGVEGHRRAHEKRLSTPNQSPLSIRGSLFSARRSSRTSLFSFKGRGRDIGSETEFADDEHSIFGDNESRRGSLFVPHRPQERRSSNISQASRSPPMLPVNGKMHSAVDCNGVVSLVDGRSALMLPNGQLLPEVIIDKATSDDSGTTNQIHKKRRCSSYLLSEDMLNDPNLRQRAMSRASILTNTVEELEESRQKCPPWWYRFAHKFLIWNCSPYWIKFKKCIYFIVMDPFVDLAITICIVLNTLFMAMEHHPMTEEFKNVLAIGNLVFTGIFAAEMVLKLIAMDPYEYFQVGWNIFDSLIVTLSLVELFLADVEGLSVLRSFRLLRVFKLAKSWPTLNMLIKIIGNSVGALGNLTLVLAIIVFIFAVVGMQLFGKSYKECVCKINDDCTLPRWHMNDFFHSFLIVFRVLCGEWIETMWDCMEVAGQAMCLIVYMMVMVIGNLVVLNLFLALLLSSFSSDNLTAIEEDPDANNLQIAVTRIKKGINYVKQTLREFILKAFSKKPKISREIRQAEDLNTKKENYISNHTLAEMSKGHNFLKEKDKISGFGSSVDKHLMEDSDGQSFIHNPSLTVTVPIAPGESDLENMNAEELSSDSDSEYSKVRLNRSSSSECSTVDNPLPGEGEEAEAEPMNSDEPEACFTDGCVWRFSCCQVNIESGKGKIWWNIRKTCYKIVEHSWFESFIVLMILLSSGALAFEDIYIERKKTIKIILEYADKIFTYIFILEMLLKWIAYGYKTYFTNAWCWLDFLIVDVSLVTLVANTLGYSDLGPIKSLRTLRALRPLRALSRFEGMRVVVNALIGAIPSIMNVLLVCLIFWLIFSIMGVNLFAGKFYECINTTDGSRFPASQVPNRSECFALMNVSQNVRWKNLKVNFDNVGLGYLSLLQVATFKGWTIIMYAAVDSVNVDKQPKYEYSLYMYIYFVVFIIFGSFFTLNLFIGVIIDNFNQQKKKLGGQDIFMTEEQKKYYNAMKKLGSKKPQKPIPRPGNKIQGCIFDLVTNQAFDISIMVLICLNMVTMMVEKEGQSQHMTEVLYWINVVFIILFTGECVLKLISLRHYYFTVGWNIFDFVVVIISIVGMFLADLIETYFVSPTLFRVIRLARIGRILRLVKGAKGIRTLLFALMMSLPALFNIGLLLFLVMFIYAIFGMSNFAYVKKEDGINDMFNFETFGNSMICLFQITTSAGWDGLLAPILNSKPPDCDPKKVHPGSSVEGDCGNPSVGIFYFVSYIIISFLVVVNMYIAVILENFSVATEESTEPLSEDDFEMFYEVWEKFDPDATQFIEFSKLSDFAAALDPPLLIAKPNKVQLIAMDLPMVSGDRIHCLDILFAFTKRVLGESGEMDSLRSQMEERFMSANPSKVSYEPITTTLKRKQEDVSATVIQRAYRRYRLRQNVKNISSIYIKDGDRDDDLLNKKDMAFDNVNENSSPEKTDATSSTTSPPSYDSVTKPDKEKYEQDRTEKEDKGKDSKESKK
Sequence of Sodium channel protein type 5 subunit alpha (Q14524 whole entry): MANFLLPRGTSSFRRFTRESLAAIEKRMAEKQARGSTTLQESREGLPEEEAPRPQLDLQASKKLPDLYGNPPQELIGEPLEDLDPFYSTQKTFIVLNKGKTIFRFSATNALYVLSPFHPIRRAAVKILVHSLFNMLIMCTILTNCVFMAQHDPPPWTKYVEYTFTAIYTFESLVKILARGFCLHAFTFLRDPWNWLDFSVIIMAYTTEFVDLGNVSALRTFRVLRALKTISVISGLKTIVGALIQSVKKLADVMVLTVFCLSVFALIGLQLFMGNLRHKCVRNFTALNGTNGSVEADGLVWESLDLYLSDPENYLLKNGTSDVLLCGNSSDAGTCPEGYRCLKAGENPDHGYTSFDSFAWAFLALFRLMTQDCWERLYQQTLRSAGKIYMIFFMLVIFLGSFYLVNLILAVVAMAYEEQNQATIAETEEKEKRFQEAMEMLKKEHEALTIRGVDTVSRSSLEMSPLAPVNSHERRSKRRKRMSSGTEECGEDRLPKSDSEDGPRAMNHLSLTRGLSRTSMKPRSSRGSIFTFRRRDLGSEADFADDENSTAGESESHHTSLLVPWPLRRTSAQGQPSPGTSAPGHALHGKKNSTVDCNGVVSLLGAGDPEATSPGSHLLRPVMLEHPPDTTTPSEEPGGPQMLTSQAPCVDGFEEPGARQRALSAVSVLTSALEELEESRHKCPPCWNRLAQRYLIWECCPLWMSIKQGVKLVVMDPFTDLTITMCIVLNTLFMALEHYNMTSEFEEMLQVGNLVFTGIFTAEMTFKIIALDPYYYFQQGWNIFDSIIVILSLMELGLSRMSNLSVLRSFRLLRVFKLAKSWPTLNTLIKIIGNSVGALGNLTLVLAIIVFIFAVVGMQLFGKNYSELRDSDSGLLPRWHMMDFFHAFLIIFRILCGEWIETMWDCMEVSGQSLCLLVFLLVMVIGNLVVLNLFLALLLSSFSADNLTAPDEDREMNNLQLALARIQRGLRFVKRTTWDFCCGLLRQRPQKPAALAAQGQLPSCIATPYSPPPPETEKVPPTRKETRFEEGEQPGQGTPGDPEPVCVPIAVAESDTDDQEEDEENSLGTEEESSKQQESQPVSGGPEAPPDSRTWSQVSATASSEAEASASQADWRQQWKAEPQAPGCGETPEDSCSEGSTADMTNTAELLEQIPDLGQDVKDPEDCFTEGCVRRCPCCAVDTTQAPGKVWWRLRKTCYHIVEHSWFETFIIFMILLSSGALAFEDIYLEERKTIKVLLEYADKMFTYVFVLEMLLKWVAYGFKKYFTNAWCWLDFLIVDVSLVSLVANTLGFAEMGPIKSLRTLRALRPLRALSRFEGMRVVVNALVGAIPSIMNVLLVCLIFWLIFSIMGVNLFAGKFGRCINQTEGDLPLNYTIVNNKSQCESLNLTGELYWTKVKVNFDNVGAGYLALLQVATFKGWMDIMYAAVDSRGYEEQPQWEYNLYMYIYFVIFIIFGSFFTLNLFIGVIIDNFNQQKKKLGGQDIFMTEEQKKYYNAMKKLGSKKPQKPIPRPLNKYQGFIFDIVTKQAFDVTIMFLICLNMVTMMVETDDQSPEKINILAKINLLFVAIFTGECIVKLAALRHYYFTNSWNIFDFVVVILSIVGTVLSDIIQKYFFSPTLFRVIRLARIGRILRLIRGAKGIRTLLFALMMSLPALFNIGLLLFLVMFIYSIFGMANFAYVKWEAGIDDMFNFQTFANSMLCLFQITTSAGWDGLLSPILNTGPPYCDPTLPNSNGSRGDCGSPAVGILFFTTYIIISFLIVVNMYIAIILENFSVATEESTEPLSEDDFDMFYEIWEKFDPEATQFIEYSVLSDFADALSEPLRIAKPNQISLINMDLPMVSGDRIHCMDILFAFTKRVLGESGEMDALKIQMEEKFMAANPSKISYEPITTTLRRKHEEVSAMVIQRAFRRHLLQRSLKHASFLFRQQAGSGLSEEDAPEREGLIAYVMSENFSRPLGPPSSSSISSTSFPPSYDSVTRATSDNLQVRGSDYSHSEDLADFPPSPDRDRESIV

remaining at 1 h, 10 uM [3]: > 99% | Cmax [5]: 20.3 µM | AUC [6]: 5.6 µM·h | remaining at 1 h, 10 uM [8]: > 99% | half-life [9]: 12 h | concentration (Plasma [14]): 7.3 µM | half-life [16]: 3.1 h | bioavailability [17]: 33% | clearance (Canis familiaris [23]): 0.5 mL/min/kg | concentration (Plasma [29]): 78.2 µM | concentration at 3.5 h [30]: 31.6 µM | AUC [32]: 50 µM·h | IC50 [33]: 2 µM | concentration (Plasma [37]): 16.2 µM | bioavailability [40]: 60% | IC50 (Cytochrome P450 2C9): 20.3 µM | IC50 (Cytochrome P450 2D6): > 100 µM | Cmax [42]: 2.64 µM | IC50 [47]: 0.81 µM
Compound: NC(=O)c1cc(C(N)=O)n(-c2cccc(-c3cc(C(F)(F)F)ccc3C(F)(F)F)c2)n1
inhibition at 10 µM (hERG (KCNH2) [1]): 17% | inhibition at 10 µM [2]: 0% | Activity (Canis familiaris [4]): Non-toxic | Activity (Canis familiaris [7]): Non-toxic | inhibition in vivo at 30 mg/kg (Rattus norvegicus [10]): 53% | Activity (Rattus norvegicus [11]): -2% | Activity (Mus musculus [12]): Non-toxic | Activity (Mus musculus [13]): Non-toxic | inhibition in vivo at 30 mg/kg (Rattus norvegicus [15]): 46% | Activity (Canis familiaris [18]): Non-toxic | IC50 [19]: 1.32 µM | inhibition in vivo at 10 mg/kg (Rattus norvegicus [20]): 34% | Activity (Mus musculus [21]): Non-toxic | inhibition at 30 µM (hERG (KCNH2) [22]): 15% | Activity (Mus musculus [24]): Non-toxic | inhibition in vivo at 3 mg/kg (Rattus norvegicus [25]): 30% | Activity (Mus musculus [26]): Non-toxic | Activity (Canis familiaris [27]): Non-toxic | inhibition in vivo at 30 mg/kg (Rattus norvegicus [28]): 56% | Activity (Mus musculus [31]): Non-toxic | Activity (Canis familiaris [34]): Non-toxic | Activity (Mus musculus [35]): Non-toxic | Activity (Canis familiaris [36]): Non-toxic | Activity (Canis familiaris [38]): Non-toxic | Activity (Mus musculus [39]): Non-toxic | Activity (Canis familiaris [41]): Non-toxic | Activity (Rattus norvegicus [43]): -11% | inhibition in vivo at 3 mg/kg (Rattus norvegicus [44]): 18% | inhibition in vivo at 10 mg/kg (Rattus norvegicus [45]): 44% | Activity (Canis familiaris [46]): 6% | inhibition in vivo at 30 mg/kg (Rattus norvegicus [48]): 59%
